pIC50: −log10 of the molar value. Blank lines part the entries; values can stand above or below the compound they belong to.
How the values were obtained:
[1] = biological target: Acetyl-CoA carboxylase 1 (Homo sapiens, UniProt Q13085)
Description: Inhibition of recombinant human ACC1 using acetyl-Co A as substrate incubated for 60 mins in presence of ATP by ADP-Glo assay

[2] = biological target: Acetyl-CoA carboxylase 2 (Homo sapiens, UniProt O00763)
Description: Inhibition of recombinant human ACC2 using acetyl-Co A as substrate incubated for 60 mins in presence of ATP by ADP-Glo assay

[3] = Inhibition of ACC2 in rat skeletal muscle using KH[14C]O3 as substrate measured after 7 mins in presence of ATP by liquid scintillation counter analysis
[4] = Tmax in Sprague-Dawley rat at 3 mg/kg, po measured for 0.25 to 24 hrs by LC-MS/MS analysis; type: ADME, organism-based; settings: in vivo, time 0.25-24 hrs
[5] = Cmax in Sprague-Dawley rat at 3 mg/kg, po measured for 0.25 to 24 hrs by LC-MS/MS analysis; type: ADME, organism-based; settings: in vivo, time 0.25-24 hrs
[6] = AUC (0 to t) in Sprague-Dawley rat at 3 mg/kg, po measured for 0.25 to 24 hrs by LC-MS/MS analysis; type: ADME, organism-based; settings: in vivo, time 0.25-24 hrs
[7] = MRT (0 to t) in Sprague-Dawley rat at 3 mg/kg, po measured for 0.25 to 24 hrs by LC-MS/MS analysis; type: ADME, organism-based; settings: in vivo, time 0.25-24 hrs
[8] = Oral bioavailability in Sprague-Dawley rat at 3 mg/kg measured for 0.25 to 24 hrs by LC-MS/MS analysis; type: ADME, organism-based; settings: in vivo, time 0.25-24 hrs
[9] = Half life in Sprague-Dawley rat at 1 mg/kg, iv measured for 0.25 to 24 hrs by LC-MS/MS analysis; type: ADME, organism-based; settings: in vivo, time 0.25-24 hrs
[10] = AUC (0 to t) in Sprague-Dawley rat at 1 mg/kg, iv measured for 0.25 to 24 hrs by LC-MS/MS analysis; type: ADME, organism-based; settings: in vivo, time 0.25-24 hrs
[11] = MRT (0 to t) in Sprague-Dawley rat at 1 mg/kg, iv measured for 0.25 to 24 hrs by LC-MS/MS analysis; type: ADME, organism-based; settings: in vivo, time 0.25-24 hrs
[12] = Clearance in Sprague-Dawley rat at 1 mg/kg, iv measured for 0.25 to 24 hrs by LC-MS/MS analysis; type: ADME, organism-based; settings: in vivo, time 0.25-24 hrs
[13] = Volume of distribution in Sprague-Dawley rat at 1 mg/kg, iv measured for 0.25 to 24 hrs by LC-MS/MS analysis; type: ADME, organism-based; settings: in vivo, time 0.25-24 hrs
[14] = Biodistribution in liver of 12 hr-fasted male wild-type Sprague-Dawley rat at 3 mg/kg, po measured after 4 hrs by LC-MS/MS analysis; type: ADME, organism-based; settings: in vivo
[15] = Biodistribution in 12 hr-fasted male wild-type Sprague-Dawley rat assessed as increase in ratio of drug concentration in liver/plasma at 3 mg/kg, po measured for 0.25 to 4 hrs by LC-MS/MS analysis; type: ADME, organism-based; settings: in vivo, time 0.25-4 hrs
[16] = Inhibition of fatty acid synthesis in human HepG2 cells preincubated for 1.5 hrs followed by [14C] acetate addition measured after 1.5 hrs by liquid scintillation counter analysis; type: functional, cell-based
[17] = Protein binding in human plasma; type: ADME, cell-free; settings: read-out: PPB (converted)
[18] = Protein binding in rat plasma; type: ADME, cell-free; settings: read-out: PPB (converted)
[19] = Intrinsic clearance in human liver microsomes; type: ADME, Microsome; settings: read-out: CLH
[20] = Intrinsic clearance in mouse liver microsomes; type: ADME, Microsome; settings: read-out: CLH
[21] = Intrinsic clearance in rat liver microsomes; type: ADME, Microsome; settings: read-out: CLH
[22] = Intrinsic clearance in dog liver microsomes; type: ADME, Canis lupus familiaris, Microsome; settings: read-out: CLH
[23] = Intrinsic clearance in monkey liver microsomes; type: ADME, Macaca mulatta, Microsome; settings: rhesus monkey, read-out: CLH
[24] = biological target: T1, Cytochrome P450 1A2 (Homo sapiens, UniProt P05177); test: Inhibition of CYP1A2 (unknown origin); type: ADME
T1 sequence (P05177 whole entry): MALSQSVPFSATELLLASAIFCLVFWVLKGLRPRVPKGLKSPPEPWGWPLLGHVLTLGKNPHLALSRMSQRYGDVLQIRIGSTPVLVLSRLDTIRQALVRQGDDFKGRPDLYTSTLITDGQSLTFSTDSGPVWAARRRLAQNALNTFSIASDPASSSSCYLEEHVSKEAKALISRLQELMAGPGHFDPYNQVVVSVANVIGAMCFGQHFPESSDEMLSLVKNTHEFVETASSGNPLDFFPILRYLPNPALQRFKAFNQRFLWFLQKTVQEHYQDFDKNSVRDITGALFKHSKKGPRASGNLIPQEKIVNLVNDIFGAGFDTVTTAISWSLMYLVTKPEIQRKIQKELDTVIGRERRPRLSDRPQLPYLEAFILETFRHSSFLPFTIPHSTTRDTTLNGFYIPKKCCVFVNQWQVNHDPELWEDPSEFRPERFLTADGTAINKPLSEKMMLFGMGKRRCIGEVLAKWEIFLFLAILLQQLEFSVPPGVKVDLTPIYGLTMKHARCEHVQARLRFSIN

[25] = biological target: T2, Cytochrome P450 2B6 (Homo sapiens, UniProt P20813); test: Inhibition of CYP2B6 (unknown origin); type: ADME
T2 sequence (P20813 whole entry): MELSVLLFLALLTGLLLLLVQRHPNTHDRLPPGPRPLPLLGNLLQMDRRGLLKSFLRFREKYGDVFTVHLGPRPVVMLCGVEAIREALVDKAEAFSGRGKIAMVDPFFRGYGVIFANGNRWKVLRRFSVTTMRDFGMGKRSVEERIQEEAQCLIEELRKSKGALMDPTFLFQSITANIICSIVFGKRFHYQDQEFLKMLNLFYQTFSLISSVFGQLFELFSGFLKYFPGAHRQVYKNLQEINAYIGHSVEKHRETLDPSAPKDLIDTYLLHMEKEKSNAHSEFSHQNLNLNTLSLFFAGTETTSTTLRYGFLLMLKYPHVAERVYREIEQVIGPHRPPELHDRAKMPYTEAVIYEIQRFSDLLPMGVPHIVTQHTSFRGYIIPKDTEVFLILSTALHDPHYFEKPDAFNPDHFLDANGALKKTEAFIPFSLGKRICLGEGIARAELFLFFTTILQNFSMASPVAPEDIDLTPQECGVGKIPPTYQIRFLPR

[26] = biological target: T3, Cytochrome P450 2C8 (Homo sapiens, UniProt P10632); test: Inhibition of CYP2C8 (unknown origin); type: ADME
T3 sequence (P10632 whole entry): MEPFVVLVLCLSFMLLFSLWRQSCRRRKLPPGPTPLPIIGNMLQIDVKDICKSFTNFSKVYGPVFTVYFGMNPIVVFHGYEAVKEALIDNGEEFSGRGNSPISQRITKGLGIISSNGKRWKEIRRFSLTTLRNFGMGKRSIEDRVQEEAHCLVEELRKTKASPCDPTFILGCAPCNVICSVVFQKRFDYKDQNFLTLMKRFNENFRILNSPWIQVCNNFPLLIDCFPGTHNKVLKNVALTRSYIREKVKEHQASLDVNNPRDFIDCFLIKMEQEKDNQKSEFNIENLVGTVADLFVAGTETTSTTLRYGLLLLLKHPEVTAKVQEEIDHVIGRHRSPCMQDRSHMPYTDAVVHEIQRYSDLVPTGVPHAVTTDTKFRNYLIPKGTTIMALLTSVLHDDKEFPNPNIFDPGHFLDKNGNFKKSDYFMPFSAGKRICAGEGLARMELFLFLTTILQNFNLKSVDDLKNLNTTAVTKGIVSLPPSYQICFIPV

[27] = biological target: Cytochrome P450 2C9 (Homo sapiens, UniProt P11712); test: Inhibition of CYP2C9 (unknown origin); type: ADME
Sequence of Cytochrome P450 2C9 (P11712 whole entry): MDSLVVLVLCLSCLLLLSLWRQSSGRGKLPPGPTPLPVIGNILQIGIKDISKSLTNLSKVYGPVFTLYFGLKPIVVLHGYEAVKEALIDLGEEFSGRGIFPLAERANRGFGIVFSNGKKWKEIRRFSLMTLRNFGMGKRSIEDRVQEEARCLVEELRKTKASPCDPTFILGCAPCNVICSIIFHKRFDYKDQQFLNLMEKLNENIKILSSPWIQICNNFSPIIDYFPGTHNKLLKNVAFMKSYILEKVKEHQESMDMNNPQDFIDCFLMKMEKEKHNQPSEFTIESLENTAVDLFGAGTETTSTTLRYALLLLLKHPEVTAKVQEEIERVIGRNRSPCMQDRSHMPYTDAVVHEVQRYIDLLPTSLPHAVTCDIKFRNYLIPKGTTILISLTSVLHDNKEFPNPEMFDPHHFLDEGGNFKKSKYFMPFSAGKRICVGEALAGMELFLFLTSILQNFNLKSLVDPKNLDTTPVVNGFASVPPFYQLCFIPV

[28] = biological target: Cytochrome P450 2C19 (Homo sapiens, UniProt P33261); test: Inhibition of CYP2C19 (unknown origin); type: ADME
Sequence of Cytochrome P450 2C19 (P33261 whole entry): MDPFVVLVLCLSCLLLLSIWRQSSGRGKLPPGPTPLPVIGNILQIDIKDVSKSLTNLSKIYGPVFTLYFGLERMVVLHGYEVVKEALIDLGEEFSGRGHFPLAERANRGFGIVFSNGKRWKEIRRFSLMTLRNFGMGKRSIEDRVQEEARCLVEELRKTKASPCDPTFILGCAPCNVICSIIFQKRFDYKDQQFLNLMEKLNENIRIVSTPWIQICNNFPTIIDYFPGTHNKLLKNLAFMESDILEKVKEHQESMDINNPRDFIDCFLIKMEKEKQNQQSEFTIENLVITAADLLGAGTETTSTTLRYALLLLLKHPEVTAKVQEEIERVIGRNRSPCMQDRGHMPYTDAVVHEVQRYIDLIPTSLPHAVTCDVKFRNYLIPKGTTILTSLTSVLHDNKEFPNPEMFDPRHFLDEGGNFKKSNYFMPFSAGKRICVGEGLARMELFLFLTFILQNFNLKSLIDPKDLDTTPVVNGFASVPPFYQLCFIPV

[29] = biological target: Cytochrome P450 2D6 (Homo sapiens, UniProt P10635); test: Inhibition of CYP2D6 (unknown origin); type: ADME
[30] = biological target: T4, Cytochrome P450 3A4 (Homo sapiens, UniProt P08684); test: Inhibition of CYP3A4 (unknown origin) using midazolam as substrate; type: ADME
T4 sequence (P08684 whole entry): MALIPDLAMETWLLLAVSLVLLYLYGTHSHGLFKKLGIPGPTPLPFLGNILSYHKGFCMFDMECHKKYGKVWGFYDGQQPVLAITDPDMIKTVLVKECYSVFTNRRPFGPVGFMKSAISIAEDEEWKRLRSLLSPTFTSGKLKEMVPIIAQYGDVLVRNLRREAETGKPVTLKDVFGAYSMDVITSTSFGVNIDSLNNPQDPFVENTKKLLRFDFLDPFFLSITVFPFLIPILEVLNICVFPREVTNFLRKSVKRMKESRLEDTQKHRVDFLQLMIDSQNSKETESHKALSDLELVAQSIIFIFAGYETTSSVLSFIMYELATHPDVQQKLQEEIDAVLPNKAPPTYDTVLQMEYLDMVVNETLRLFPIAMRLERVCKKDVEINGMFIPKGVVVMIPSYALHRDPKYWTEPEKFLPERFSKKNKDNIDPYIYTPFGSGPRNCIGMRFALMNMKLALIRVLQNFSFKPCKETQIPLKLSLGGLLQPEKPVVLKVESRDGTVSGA

[31] = biological target: T4, Cytochrome P450 3A4; test: Inhibition of CYP3A4 (unknown origin) using testosterone as substrate; type: ADME
[32] = biological target: Voltage-gated inwardly rectifying potassium channel KCNH2 (Homo sapiens, UniProt Q12809); test: Inhibition of hERG; type: toxicity
Sequence of Voltage-gated inwardly rectifying potassium channel KCNH2 (Q12809 whole entry): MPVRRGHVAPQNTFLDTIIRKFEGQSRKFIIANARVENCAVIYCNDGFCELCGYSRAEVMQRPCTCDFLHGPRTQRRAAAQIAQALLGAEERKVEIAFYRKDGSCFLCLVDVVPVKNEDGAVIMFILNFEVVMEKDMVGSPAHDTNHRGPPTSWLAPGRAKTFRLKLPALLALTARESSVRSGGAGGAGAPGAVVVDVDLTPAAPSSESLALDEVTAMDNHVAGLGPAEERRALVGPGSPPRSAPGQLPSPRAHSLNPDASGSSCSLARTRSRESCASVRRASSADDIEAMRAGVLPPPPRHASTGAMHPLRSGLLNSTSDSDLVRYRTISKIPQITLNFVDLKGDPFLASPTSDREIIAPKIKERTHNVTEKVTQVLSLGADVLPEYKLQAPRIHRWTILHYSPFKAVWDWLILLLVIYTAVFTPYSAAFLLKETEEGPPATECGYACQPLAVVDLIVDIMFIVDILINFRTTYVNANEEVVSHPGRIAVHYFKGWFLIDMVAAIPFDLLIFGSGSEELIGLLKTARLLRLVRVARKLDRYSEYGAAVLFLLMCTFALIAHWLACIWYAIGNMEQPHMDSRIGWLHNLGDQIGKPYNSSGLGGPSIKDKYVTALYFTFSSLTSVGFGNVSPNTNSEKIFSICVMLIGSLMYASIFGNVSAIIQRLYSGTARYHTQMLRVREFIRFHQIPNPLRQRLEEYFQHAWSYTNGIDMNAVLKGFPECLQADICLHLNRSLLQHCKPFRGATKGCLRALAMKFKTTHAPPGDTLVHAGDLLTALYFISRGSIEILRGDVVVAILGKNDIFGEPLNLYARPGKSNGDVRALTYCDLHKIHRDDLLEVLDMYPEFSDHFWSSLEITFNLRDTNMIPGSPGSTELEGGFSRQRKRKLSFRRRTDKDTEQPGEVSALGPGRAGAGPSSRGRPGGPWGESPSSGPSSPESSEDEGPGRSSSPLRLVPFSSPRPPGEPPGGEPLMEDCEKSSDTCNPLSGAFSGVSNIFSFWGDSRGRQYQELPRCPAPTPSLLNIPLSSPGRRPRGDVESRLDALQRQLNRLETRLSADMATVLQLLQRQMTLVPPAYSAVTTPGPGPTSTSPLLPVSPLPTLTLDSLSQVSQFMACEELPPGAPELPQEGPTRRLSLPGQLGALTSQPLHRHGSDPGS

[33] = Half life in Sprague-Dawley rat at 3 mg/kg, po measured for 0.25 to 24 hrs by LC-MS/MS analysis; type: ADME, organism-based; settings: in vivo, time 0.25-24 hrs

Sequence of Acetyl-CoA carboxylase 2 (O00763 whole entry): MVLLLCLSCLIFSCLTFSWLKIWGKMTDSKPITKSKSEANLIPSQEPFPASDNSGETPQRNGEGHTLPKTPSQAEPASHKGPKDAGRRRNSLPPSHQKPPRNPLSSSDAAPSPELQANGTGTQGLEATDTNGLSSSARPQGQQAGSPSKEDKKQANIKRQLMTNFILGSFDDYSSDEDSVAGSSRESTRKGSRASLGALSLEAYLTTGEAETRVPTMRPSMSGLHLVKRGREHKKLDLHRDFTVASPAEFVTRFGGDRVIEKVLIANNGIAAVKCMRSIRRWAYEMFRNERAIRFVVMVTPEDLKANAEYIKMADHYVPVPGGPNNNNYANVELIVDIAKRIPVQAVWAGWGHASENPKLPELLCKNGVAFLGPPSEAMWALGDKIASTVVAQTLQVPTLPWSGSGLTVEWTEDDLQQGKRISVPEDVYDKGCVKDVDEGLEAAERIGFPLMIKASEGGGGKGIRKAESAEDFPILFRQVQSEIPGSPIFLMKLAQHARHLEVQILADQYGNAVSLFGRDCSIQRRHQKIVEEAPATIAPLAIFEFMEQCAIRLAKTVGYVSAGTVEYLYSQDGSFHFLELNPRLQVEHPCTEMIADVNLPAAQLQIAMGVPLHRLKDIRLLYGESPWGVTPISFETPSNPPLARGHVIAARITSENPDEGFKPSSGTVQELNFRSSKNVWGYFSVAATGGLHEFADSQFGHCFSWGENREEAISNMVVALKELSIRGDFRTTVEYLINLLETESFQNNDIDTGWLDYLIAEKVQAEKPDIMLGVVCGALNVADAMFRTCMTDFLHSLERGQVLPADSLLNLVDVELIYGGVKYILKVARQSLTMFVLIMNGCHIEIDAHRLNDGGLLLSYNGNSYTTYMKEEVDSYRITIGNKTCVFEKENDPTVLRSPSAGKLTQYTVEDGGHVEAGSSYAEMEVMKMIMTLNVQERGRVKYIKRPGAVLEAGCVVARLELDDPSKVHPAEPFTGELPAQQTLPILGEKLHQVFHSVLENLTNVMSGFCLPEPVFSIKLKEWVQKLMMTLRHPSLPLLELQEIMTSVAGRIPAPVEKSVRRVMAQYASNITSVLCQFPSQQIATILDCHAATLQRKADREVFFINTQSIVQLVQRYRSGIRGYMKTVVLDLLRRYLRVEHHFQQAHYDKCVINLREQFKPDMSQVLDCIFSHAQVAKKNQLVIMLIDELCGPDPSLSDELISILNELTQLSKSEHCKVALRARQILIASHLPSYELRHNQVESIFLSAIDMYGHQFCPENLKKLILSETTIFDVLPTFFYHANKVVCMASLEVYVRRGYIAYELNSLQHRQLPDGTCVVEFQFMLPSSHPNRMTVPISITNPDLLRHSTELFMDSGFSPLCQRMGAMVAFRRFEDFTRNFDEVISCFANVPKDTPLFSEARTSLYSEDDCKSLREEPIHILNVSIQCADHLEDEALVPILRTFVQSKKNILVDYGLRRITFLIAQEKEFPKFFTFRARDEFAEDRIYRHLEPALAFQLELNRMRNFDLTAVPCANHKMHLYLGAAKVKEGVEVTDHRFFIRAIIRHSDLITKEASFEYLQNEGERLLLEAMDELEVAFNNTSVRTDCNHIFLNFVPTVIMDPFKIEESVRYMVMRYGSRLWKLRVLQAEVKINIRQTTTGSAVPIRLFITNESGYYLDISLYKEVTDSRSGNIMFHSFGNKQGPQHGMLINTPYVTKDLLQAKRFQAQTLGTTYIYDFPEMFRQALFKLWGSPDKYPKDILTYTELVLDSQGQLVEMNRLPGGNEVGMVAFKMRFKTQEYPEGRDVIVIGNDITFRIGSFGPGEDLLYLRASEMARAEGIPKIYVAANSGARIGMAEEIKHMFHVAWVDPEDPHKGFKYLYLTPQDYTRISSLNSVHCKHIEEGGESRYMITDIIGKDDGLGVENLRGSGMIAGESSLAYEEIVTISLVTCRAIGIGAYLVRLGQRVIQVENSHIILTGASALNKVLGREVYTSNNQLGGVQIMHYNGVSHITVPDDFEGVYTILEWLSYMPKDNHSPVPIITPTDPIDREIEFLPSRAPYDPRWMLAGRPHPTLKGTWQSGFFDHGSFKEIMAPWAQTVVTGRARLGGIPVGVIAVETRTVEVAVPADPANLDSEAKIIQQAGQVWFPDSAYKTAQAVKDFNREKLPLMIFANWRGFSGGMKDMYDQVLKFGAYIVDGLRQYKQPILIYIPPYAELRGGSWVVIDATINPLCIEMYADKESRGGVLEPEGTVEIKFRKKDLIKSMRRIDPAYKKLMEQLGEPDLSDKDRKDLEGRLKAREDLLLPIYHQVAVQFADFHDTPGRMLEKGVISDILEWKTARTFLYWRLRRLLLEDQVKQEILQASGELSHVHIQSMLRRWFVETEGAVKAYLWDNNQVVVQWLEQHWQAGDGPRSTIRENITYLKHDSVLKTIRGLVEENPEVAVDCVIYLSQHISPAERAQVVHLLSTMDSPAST

SMILES: O=C(c1c2ccccc2cc2ccccc12)N1CCC(N2CCC[C@@H](C(=O)N3CCOCC3)C2)CC1
pIC50 [3]: 7.21

SMILES: COc1ccccc1[C@H](Cn1c(=O)n(-c2c(C)ccn3ccnc23)c(=O)c2c(C)c(-c3ncco3)sc21)OC1CCOCC1
pIC50 [1]: 7.28

SMILES: COc1ccccc1[C@H](Cn1c(=O)n(C(C)(C)C(=O)O)c(=O)c2c(C)c(-c3ncco3)sc21)OC1CCOCC1 [FIRSOCOSTAT]
Tmax [4]: 6 min | Cmax [5]: 213 ng/mL | AUC(0-t) [6]: 628 ng·h/mL | MRT last [7]: 246 min | bioavailability [8]: 51.1% | half-life [9]: 426 min | AUC(0-t) [10]: 409 ng·h/mL | MRT last [11]: 102 min | clearance [12]: 33.3 mL/min/kg | Vd [13]: 21.4 L/kg | Drug uptake [14]: Active | Drug uptake [15]: Active | pIC50 [16]: 8.32 | fraction unbound [17]: 0.015 | fraction unbound [18]: 0.014 | CLint scaled [19]: 6 mL/min/kg | CLint scaled [20]: < 38 mL/min/kg | CLint scaled [21]: 4.3 mL/min/kg | CLint scaled [22]: 7.2 mL/min/kg | CLint scaled [23]: < 13 mL/min/kg | pIC50 [24]: < 4.52 | pIC50 [25]: < 4.52 | pIC50 [26]: < 4.52 | pIC50 [27]: < 4.52 | pIC50 [28]: < 4.52 | pIC50 [29]: < 4.52 | pIC50 [30]: < 4.52 | pIC50 [31]: < 4.52 | pIC50 [32]: < 4.52 | pIC50 [1]: 9.31 | pIC50 [2]: 8.29

SMILES: COc1ccccc1[C@H](Cn1c(=O)n(C2CN(C(=O)c3ccccn3)C2)c(=O)c2c(C)c(-c3ncco3)sc21)OC1CCOCC1
pIC50 [1]: 8.68 | pIC50 [2]: 8.19

SMILES: COc1ccccc1[C@H](Cn1c(=O)n(C2CN(CC(F)(F)F)C2)c(=O)c2c(C)c(-c3ncco3)sc21)OC1CCOCC1
pIC50 [1]: 9.02

SMILES: COc1ccccc1[C@H](Cn1c(=O)n(C2CN(C(=O)c3ncc[nH]3)C2)c(=O)c2c(C)c(-c3ncco3)sc21)OC1CCOCC1
pIC50 [1]: 8.82 | pIC50 [2]: 8.21

SMILES: COc1ccccc1[C@H](Cn1c(=O)n(C2CC(F)(F)C2)c(=O)c2c(C)c(-c3ncco3)sc21)OC1CCOCC1
pIC50 [1]: 8.03

SMILES: COc1ccccc1[C@H](Cn1c(=O)n([C@H]2C[C@@H](C(=O)O)C2)c(=O)c2c(C)c(-c3ncco3)sc21)OC1CCOCC1
Tmax [4]: 36 min | Cmax [5]: 21.3 ng/mL | AUC(0-t) [6]: 13.8 ng·h/mL | MRT last [7]: 24 min | bioavailability [8]: 5.7% | half-life [9]: 12 min | AUC(0-t) [10]: 80.8 ng·h/mL | MRT last [11]: 6 min | clearance [12]: 180 mL/min/kg | Vd [13]: 2.6 L/kg | half-life [33]: 24 min | pIC50 [1]: 9.10 | pIC50 [2]: 8.29

SMILES: COc1ccccc1[C@H](Cn1c(=O)n(C2CN(C(=O)c3ccccc3)C2)c(=O)c2c(C)c(-c3ncco3)sc21)OC1CCOCC1
pIC50 [1]: 8.27

SMILES: COc1ccccc1[C@H](Cn1c(=O)n(CC2(C(=O)O)CC2)c(=O)c2c(C)c(-c3ncco3)sc21)OC1CCOCC1
pIC50 [1]: 9.07

Other lines, results leading:

pIC50 [1]: 8.86 | pIC50 [2]: 7.78
SMILES: COc1ccccc1[C@H](Cn1c(=O)n([C@H]2C[C@](C)(C(=O)O)C2)c(=O)c2c(C)c(-c3ncco3)sc21)OC1CCOCC1

pIC50 [1]: 8.98
SMILES: COc1ccccc1[C@H](Cn1c(=O)n([C@H]2C[C@](C)(C(N)=O)C2)c(=O)c2c(C)c(-c3ncco3)sc21)OC1CCOCC1

pIC50 [1]: 7.92
SMILES: COc1ccccc1[C@H](Cn1c(=O)n(C2CN(C(=O)N3CC(C)(C(=O)O)C3)C2)c(=O)c2c(C)c(-c3ncco3)sc21)OC1CCOCC1

pIC50 [1]: 8.96 | pIC50 [2]: 8.04
SMILES: COc1ccccc1[C@H](Cn1c(=O)n(C2CN(C(=O)N3CCOCC3)C2)c(=O)c2c(C)c(-c3ncco3)sc21)OC1CCOCC1

pIC50 [1]: 8.02
SMILES: COc1ccccc1[C@H](Cn1c(=O)n(C2CN(C(=O)N3CC(C)(O)C3)C2)c(=O)c2c(C)c(-c3ncco3)sc21)OC1CCOCC1

— ChEMBL document CHEMBL6134873, “Identification of Novel Cyclobutane-Based Derivatives as Potent Acetyl-CoA Carboxylase Allosteric Inhibitors for Nonalcoholic Steatohepatitis Drug Discovery” (J Med Chem, 2025)
